From PubChem BioAssay AID248 (DTP/NCI, 2004)
Values joined by “and” are separate entries in the source; they are usually repeats but may differ in a detail not shown here. Identical values can stand only once. Toxic doses and inconclusive results are not listed.

Test system: L1210 leukemia ip in BDF1 mice, survival T/C
Assay: NCI In Vivo Anticancer Drug Screen. Data for tumor model L1210 Leukemia (intraperitoneal) in B6D2F1 (BDF1) mice
Conditions: endpoint: mean survival time, higher = longer survival
In short: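 Transplantable tumor model; survival measured in treated vs vehicle control mice. Value = treated/control.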

[1] = dose: 100.0 mg/kg/injection, schedule: Q01DX001 (ip), vehicle: saline with Tween-80
[2] = dose: 200.0 mg/kg/injection, schedule: Q01DX001 (ip), vehicle: saline with Tween-80
[3] = dose: 400.0 mg/kg/injection, schedule: Q01DX001 (ip), vehicle: saline with Tween-80
[4] = dose: 1.0 mg/kg/injection, schedule: Q01DX Z (ip), vehicle: saline
[5] = dose: 4.0 mg/kg/injection, schedule: Q01DX Z (ip), vehicle: saline
[6] = dose: 100.0 mg/kg/injection, schedule: Q01DX009 (ip), vehicle: saline
[7] = dose: 200.0 mg/kg/injection, schedule: Q01DX009 (ip), vehicle: saline
[8] = dose: 100.0 mg/kg/injection, schedule: Q04DX003 (ip), vehicle: saline with Tween-80
[9] = dose: 200.0 mg/kg/injection, schedule: Q04DX003 (ip), vehicle: saline with Tween-80

For O=C1c2cscc2C(=O)c2sccc21, the T/C [1] was 100 % of control, the T/C [2] was 102 % of control and the T/C [3] was 96 % of control.
CCOC1=C(N2CC2)C(=O)C(OCC)=C(N2CC2)C1=O was tested, and the T/C (dose: 0.1 mg/kg/injection, schedule: Q01DX009 (ip), vehicle: saline) was 109 % of control, the T/C (dose: 0.1 mg/kg/injection, schedule: Q01DX Z (ip), vehicle: carboxymethylcellulose (CMC)) was 105 % of control and the T/C (dose: 0.25 mg/kg/injection, schedule: Q01DX001 (ip), vehicle: saline) was 105 % of control. The T/C (dose: 0.25 mg/kg/injection, schedule: Q01DX009 (ip), vehicle: saline) was 107 % of control, the T/C (dose: 0.25 mg/kg/injection, schedule: Q01DX Z (ip), vehicle: saline) was 118 % of control and the T/C (dose: 0.3 mg/kg/injection, schedule: Q01DX Z (ip), vehicle: carboxymethylcellulose (CMC)) was 105 % of control. For the same molecule, the T/C (dose: 0.31 mg/kg/injection, schedule: Q01DX Z (ip), vehicle: saline) was 110 % of control, the T/C (dose: 0.47 mg/kg/injection, schedule: Q01DX Z (ip), vehicle: saline) was 121 % of control and the T/C (dose: 0.5 mg/kg/injection, schedule: Q01DX001 (ip), vehicle: saline) was 103 % of control. The T/C (dose: 0.5 mg/kg/injection, schedule: Q01DX009 (ip), vehicle: saline) was 109 % of control, the T/C (dose: 0.5 mg/kg/injection, schedule: Q01DX Z (ip), vehicle: saline) was 118 % of control and the T/C (dose: 0.7 mg/kg/injection, schedule: Q01DX Z (ip), vehicle: saline) was 121 % of control. The T/C (dose: 1.0 mg/kg/injection, schedule: Q01DX001 (ip), vehicle: saline) was 107 % of control, the T/C (dose: 1.0 mg/kg/injection, schedule: Q01DX009 (ip), vehicle: saline) was 121 % of control and the T/C [4] was 157 % of control. The T/C (dose: 2.0 mg/kg/injection, schedule: Q01DX001 (ip), vehicle: saline) was 118 % of control, the T/C [5] was 94 % of control and the T/C (dose: 5.0 mg/kg/injection, schedule: Q01DX001 (ip), vehicle: saline) was 158 % of control. For the same molecule, the T/C (dose: 5.0 mg/kg/injection, schedule: Q01DX Z (ip), vehicle: methylcellulose (MC)) was 102 % of control and the T/C (dose: 10.0 mg/kg/injection, schedule: Q01DX001 (ip), vehicle: saline) was 103 % of control.
For CS(=O)(=O)C(=C(N1CCCCC1)N1CCCCC1)S(=O)(=O)Cc1ccccc1, the T/C (dose: 100.0 mg/kg/injection, schedule: Q01DX001 (ip), vehicle: saline) was 100 % of control, the T/C [6] was 88 % of control and the T/C (dose: 200.0 mg/kg/injection, schedule: Q01DX001 (ip), vehicle: saline) was 96 % of control. For the same molecule, the T/C [7] was 93 % of control and the T/C (dose: 400.0 mg/kg/injection, schedule: Q01DX001 (ip), vehicle: saline) was 96 % of control.
In the case of NCC1COc2ccccc2O1 (centres undefined), the T/C (dose: 75.0 mg/kg/injection, schedule: Q01DX001 (ip), vehicle: carboxymethylcellulose (CMC)) is reported as 98 % of control, the T/C (dose: 150.0 mg/kg/injection, schedule: Q01DX001 (ip), vehicle: carboxymethylcellulose (CMC)) is reported as 96 % of control and the T/C (dose: 300.0 mg/kg/injection, schedule: Q01DX001 (ip), vehicle: carboxymethylcellulose (CMC)) is reported as 96 % of control.
For CC(O)C(NCNC(=O)C1=C(O)C2(O)C(=O)C3=C(O)c4c(O)cccc4C(C)(O)C3CC2C(N(C)C)C1=O)C(=O)O (centres undefined), the T/C [4] was 110 % of control, the T/C [5] was 100 % of control and the T/C (dose: 14.0 mg/kg/injection, schedule: Q01DX Z (ip), vehicle: saline) was 91 % of control. For the same molecule, the T/C (dose: 15.0 mg/kg/injection, schedule: Q01DX Z (ip), vehicle: saline) was 96 % of control, the T/C (dose: 28.0 mg/kg/injection, schedule: Q01DX Z (ip), vehicle: saline) was 102 % of control and the T/C (dose: 56.0 mg/kg/injection, schedule: Q01DX Z (ip), vehicle: saline) was 91 % of control. The T/C (dose: 60.0 mg/kg/injection, schedule: Q01DX Z (ip), vehicle: saline) was 98 % of control, the T/C (dose: 100.0 mg/kg/injection, schedule: Q04DX003 (ip), vehicle: saline) was 98 % of control and the T/C (dose: 120.0 mg/kg/injection, schedule: Q01DX Z (ip), vehicle: saline) was 93 % of control. For the same molecule, the T/C (dose: 200.0 mg/kg/injection, schedule: Q04DX003 (ip), vehicle: saline) was 100 % of control, the T/C (dose: 224.0 mg/kg/injection, schedule: Q01DX Z (ip), vehicle: saline) was 91 % of control and the T/C (dose: 240.0 mg/kg/injection, schedule: Q01DX Z (ip), vehicle: saline) was 95 % of control and 98 % of control. For the same molecule, the T/C (dose: 400.0 mg/kg/injection, schedule: Q04DX003 (ip), vehicle: saline) was 109 % of control, the T/C (dose: 448.0 mg/kg/injection, schedule: Q01DX Z (ip), vehicle: saline) was 93 % of control and the T/C (dose: 480.0 mg/kg/injection, schedule: Q01DX Z (ip), vehicle: saline) was 107 % of control.
For COC1OC2COCOC2C(OS(=O)(=O)c2ccc(C)cc2)C1OS(=O)(=O)c1ccc(C)cc1 (centres undefined), the T/C (dose: 100.0 mg/kg/injection, schedule: Q04DX002 (ip), vehicle: Klucel (hydroxypropylcellulose) (HPC)) was 100 % of control, the T/C [8] was 89 % of control and the T/C (dose: 200.0 mg/kg/injection, schedule: Q04DX002 (ip), vehicle: Klucel (hydroxypropylcellulose) (HPC)) was 95 % of control. For the same molecule, the T/C [9] was 86 % of control and the T/C (dose: 400.0 mg/kg/injection, schedule: Q04DX002 (ip), vehicle: Klucel (hydroxypropylcellulose) (HPC)) was 92 % of control.
For COC1CC(C)C(Cl)C(C)C1/C=C/C(=O)O (centres undefined), the T/C (dose: 50.0 mg/kg/injection, schedule: Q01DX001 (ip), vehicle: saline with Tween-80) was 101 % of control, the T/C [1] was 94 % of control and the T/C [2] was 94 % of control.
For CCOc1ccccc1/C=C1\C=C(CC)SC1=O, the T/C [1] was 91 % of control, the T/C [2] was 94 % of control and the T/C [3] was 91 % of control.
CC(=O)Nc1c(C)cc(C)c(F)c1Br was tested, and the T/C (dose: 37.5 mg/kg/injection, schedule: Q01DX001 (ip), vehicle: Klucel (hydroxypropylcellulose) (HPC)) was 97 % of control, the T/C (dose: 75.0 mg/kg/injection, schedule: Q01DX001 (ip), vehicle: Klucel (hydroxypropylcellulose) (HPC)) was 95 % of control and the T/C (dose: 150.0 mg/kg/injection, schedule: Q01DX001 (ip), vehicle: Klucel (hydroxypropylcellulose) (HPC)) was 95 % of control.
With CSc1ccc(NC(=O)Nc2cc(C)cc(C)n2)cc1 the T/C (dose: 100.0 mg/kg/injection, schedule: Q01DX009 (ip), vehicle: Klucel (hydroxypropylcellulose) (HPC)) was 94 % of control, the T/C (dose: 100.0 mg/kg/injection, schedule: Q04DX003 (ip), vehicle: Klucel (hydroxypropylcellulose) (HPC)) was 98 % of control and the T/C (dose: 200.0 mg/kg/injection, schedule: Q01DX009 (ip), vehicle: Klucel (hydroxypropylcellulose) (HPC)) was 94 % of control. For the same molecule, the T/C (dose: 200.0 mg/kg/injection, schedule: Q04DX003 (ip), vehicle: Klucel (hydroxypropylcellulose) (HPC)) was 103 % of control, the T/C (dose: 400.0 mg/kg/injection, schedule: Q01DX009 (ip), vehicle: Klucel (hydroxypropylcellulose) (HPC)) was 87 % of control and the T/C (dose: 400.0 mg/kg/injection, schedule: Q04DX003 (ip), vehicle: Klucel (hydroxypropylcellulose) (HPC)) was 98 % of control.
In the case of O=C(CSc1cc(-c2ccc(Cl)cc2)s[s+]1)c1ccccc1, the T/C (dose: 100.0 mg/kg/injection, schedule: Q01DX009 (ip), vehicle: saline with Tween-80) is reported as 100 % of control, the T/C [8] is reported as 93 % of control and the T/C (dose: 200.0 mg/kg/injection, schedule: Q01DX009 (ip), vehicle: saline with Tween-80) is reported as 97 % of control. The T/C [9] was 96 % of control, the T/C (dose: 400.0 mg/kg/injection, schedule: Q01DX009 (ip), vehicle: saline with Tween-80) was 103 % of control and the T/C (dose: 400.0 mg/kg/injection, schedule: Q04DX003 (ip), vehicle: saline with Tween-80) was 100 % of control.
c1ccc(-c2noc(-c3ccccc3)n2)cc1 was tested, and the T/C (dose: 62.5 mg/kg/injection, schedule: Q04DX002 (ip), vehicle: Klucel (hydroxypropylcellulose) (HPC)) was 90 % of control, the T/C (dose: 125.0 mg/kg/injection, schedule: Q04DX002 (ip), vehicle: Klucel (hydroxypropylcellulose) (HPC)) was 87 % of control and the T/C (dose: 250.0 mg/kg/injection, schedule: Q04DX002 (ip), vehicle: Klucel (hydroxypropylcellulose) (HPC)) was 93 % of control.
For COC(=O)C(=[N+]=[N-])C(F)(F)F, the T/C (dose: 50.0 mg/kg/injection, schedule: Q01DX009 (ip), vehicle: saline) was 95 % of control, the T/C [6] was 102 % of control and the T/C [7] was 102 % of control.
CCC1CCC2C(CCC3(N(C)C)CCC(OC)C(OC)C23)C1 (centres undefined) was tested, and the T/C (dose: 3.13 mg/kg/injection, schedule: Q01DX001 (ip), vehicle: saline with Tween-80) was 98 % of control, the T/C (dose: 6.25 mg/kg/injection, schedule: Q01DX001 (ip), vehicle: saline with Tween-80) was 96 % of control and the T/C (dose: 12.5 mg/kg/injection, schedule: Q01DX001 (ip), vehicle: saline with Tween-80) was 100 % of control.
CNC(=O)NS(=O)(=O)c1ccc([N+](=O)[O-])cc1 was tested, and the T/C (dose: 100.0 mg/kg/injection, schedule: Q01DX001 (ip), vehicle: carboxymethylcellulose (CMC)) was 95 % of control, the T/C (dose: 200.0 mg/kg/injection, schedule: Q01DX001 (ip), vehicle: carboxymethylcellulose (CMC)) was 91 % of control and the T/C (dose: 400.0 mg/kg/injection, schedule: Q01DX001 (ip), vehicle: carboxymethylcellulose (CMC)) was 92 % of control.
